According to ChEMBL document CHEMBL4393690, “Acylated sulfonamide adenosines as potent inhibitors of the adenylate-forming enzyme superfamily” (Eur J Med Chem, 2019):

Key:
[1] = molecular target: Serine--tRNA ligase (Escherichia coli (strain K12)) (UniProt P0A8L1); assay: (§1) Inhibition of recombinant Escherichia coli BL21(DE3) seryl-tRNA synthetase expressed in Escherichia coli Rosetta 2 (DE3) assessed as reduction in tRNA aminoacylation at 2 uM preincubated for 10 mins in presence of [14C]-isoleucin and tRNA followed by ATP addition and measured after 6 mins by scintillation counting method
Isoleucine--tRNA ligase = Isoleucine--tRNA ligase (Escherichia coli K-12, UniProt P00956); assay: as §1, with “isoleucyl-tRNA” for “seryl-tRNA”, “aminoacylation” for “aminoacylation at 2 uM”
Chain of Isoleucine--tRNA ligase (P00956 whole entry): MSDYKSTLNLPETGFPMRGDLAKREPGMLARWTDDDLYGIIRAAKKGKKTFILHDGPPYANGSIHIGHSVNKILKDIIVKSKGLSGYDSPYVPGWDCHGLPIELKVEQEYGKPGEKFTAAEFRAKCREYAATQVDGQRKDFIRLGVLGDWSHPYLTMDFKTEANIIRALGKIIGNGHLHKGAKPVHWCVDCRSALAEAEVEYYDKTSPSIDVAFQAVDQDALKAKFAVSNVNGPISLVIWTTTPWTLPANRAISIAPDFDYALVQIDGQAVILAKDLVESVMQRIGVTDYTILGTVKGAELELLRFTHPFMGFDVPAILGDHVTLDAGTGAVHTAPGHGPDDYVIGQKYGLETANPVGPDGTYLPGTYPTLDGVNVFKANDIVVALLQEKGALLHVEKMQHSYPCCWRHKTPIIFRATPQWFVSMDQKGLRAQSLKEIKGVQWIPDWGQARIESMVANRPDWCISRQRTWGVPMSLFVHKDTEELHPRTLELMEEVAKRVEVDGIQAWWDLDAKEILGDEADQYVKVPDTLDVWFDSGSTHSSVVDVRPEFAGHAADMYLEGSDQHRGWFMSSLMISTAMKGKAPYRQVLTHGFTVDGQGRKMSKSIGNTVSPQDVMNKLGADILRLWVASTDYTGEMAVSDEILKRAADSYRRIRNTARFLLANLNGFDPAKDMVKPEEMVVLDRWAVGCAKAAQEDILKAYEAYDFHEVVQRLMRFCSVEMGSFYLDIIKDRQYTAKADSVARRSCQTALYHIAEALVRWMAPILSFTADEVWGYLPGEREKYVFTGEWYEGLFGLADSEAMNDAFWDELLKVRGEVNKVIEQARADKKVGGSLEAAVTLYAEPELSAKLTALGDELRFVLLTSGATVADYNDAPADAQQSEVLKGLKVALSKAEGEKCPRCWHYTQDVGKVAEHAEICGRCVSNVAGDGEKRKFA

Chain of Serine--tRNA ligase (Escherichia coli (strain K12)) (P0A8L1 whole entry, looked up): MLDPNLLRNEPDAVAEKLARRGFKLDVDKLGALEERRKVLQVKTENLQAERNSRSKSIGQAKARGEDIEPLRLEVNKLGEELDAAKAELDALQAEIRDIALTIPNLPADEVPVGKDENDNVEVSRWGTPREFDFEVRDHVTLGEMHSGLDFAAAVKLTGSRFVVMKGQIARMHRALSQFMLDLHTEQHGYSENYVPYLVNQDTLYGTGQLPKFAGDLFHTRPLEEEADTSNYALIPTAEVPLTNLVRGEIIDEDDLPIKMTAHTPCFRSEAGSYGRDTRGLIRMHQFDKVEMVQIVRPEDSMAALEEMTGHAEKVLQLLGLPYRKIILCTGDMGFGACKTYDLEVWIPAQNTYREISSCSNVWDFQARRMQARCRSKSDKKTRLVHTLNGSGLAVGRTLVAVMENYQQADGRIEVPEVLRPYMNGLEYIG

inhibition [1] [%] | IC50 (Isoleucine--tRNA ligase) [nM] | Ki (Isoleucine--tRNA ligase; read-out: Ki(app)) [nM] | Structure (SMILES)
30 |  |  | Nc1ncnc2c1ncn2[C@@H]1O[C@H](CCS(=O)(=O)NC(=O)[C@@H](N)CO)[C@@H](O)[C@H]1O
 | 6.8 | 1.2 | CC[C@H](C)[C@H](N)C(=O)NS(=O)(=O)CC[C@H]1O[C@@H](n2cnc3c(N)ncnc32)[C@H](O)[C@@H]1O
